Consider 18 compounds from patent publication US12091425B2 (AMGEN INC., priority 2016, dated 2024).

The target in experiment [1] is T1, Mcl-1/Bim interaction, recombinant human Mcl-1 (171-327) (Homo sapiens, UniProt Q07820).
T1 construct: made in house
The experiment in a line: Cell free Mcl-1: Bim Affinity Assay (Mcl-1 HTRF). Format: binding. Put shortly: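 TR-FRET competition assay with biotinylated human Bim peptide (residues 51-76); reaction plates incubated overnight before reading. IC50 values came from duplicate data fitted to a four-parameter sigmoidal competition curve.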
Background: In TR-FRET formats the signal depends on donor and acceptor labels being close together.

In experiment [2] the test system is OPM-2 human multiple myeloma cell line. As to the kind of experiment: Cell Viability Assay (OPM-2 10 FBS). The conditions noted are these: OPM-2 cells, CellTiter-Glo. The class given is cell-based. The procedure: Cell Viability Assay (OPM-2 10 FBS)
Cells were seeded into 384-well plates at 3000 cells/well density in complete growth medium containing 10% FBS, and incubated for 16 h with serially diluted test compounds in a 37° C. incubator with 5% CO2. Cell viability was tested using CellTiter-Glo® assay (Promega, Madison, WI) according to the manufacturer recommendations. Luminescence was determined using an EnVision® Multilabel plate reader 25 min after the addition of detection reagent. IC50 values were then calculated with Xlfit using a logistical 4-parameter fit model in GraphPad Prism (GraphPad Software, San Diego, CA) or in Genedata Screener® (Genedata, Basel, Switzerland).
(In general: In ATP-based viability assays light output follows the ATP content of the culture.)

[3] abbreviates: TR-FRET, 0.1 nM Mcl-1 (171-327), 0.05 nM biotin-Bim (51-76).
Where [4] appears, read: Homo sapiens, OPM-2, 16 h, 16 h.
Setting [5] is: cell free Mcl-1:Bim TR-FRET, recombinant human Mcl-1 (171-327).
Where [6] appears, read: Homo sapiens, OPM-2, 16 h, 16 h incubation.

One may read the IC50 as the concentration needed to halve the response being measured.

T1 sequence (Q07820 171-327): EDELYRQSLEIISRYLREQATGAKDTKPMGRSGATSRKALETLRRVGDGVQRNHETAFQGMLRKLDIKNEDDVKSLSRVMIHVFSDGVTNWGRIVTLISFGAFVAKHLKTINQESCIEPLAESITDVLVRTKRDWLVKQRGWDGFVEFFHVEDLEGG

`CC(C)(C)S(=O)(=O)CC[C@@H]1CC/C=C/[C@H](O)[C@@H]2CC[C@H]2CN2C[C@@]3(CCCc4cc(Cl)ccc43)COc3ccc(cc32)C(=O)NS1(=O)=O.CC(C)(C)S(=O)(=O)CC[C@H]1CC/C=C/[C@H](O)[C@@H]2CC[C@H]2CN2C[C@@]3(CCCc4cc(Cl)ccc43)COc3ccc(cc32)C(=O)NS1(=O)=O` (mixture of isomers) [Example 154]: the results for the half-maximal inhibitory concentration (IC50) in experiment [1] (setting [3]) and in experiment [2] (16 h) were 0.259 nM and 7580 nM, respectively.

With `CNC(=O)[C@@H](OC)[C@@H]1/C=C/[C@@H]2CC[C@H]2CN2C[C@@]3(CCCc4cc(Cl)ccc43)COc3ccc(cc32)C(=O)NS(=O)(=O)[C@H](C)[C@@H](C)C1.CNC(=O)[C@H](OC)[C@@H]1/C=C/[C@@H]2CC[C@H]2CN2C[C@@]3(CCCc4cc(Cl)ccc43)COc3ccc(cc32)C(=O)NS(=O)(=O)[C@H](C)[C@@H](C)C1` (mixture of isomers) [Example 362], the IC50 was found to be 0.639 nM in experiment [1] (setting [3]) and 476 nM in experiment [2] (16 h).

For `C[C@@H]1CC/C=C/[C@H](OC[C@H](O)CO)[C@@H]2CC[C@H]2CN2C[C@@]3(CCCc4cc(Cl)ccc43)COc3ccc(cc32)C(=O)NS1(=O)=O` (mixture of isomers) [Example 415], the IC50 is 0.276 nM in experiment [1] (setting [3]) and 2640 nM in experiment [2] (setting [4]).

On to `C[C@@H]1[C@@H](C)C/C=C/[C@H](OCCO[C@H]2CCCCO2)[C@@H]2CC[C@H]2CN2C[C@@]3(CCCc4cc(Cl)ccc43)COc3ccc(cc32)C(=O)NS1(=O)=O` (mixture of isomers) [Example 517], for which the half-maximal inhibitory concentration (IC50) in experiment [1] (setting [5]) came out at 1.86 nM; in experiment [2] (setting [4]), 467 nM.

`CO[C@H]1C/C=C/[C@H](C)[C@@H](C)S(=O)(=O)NC(=O)c2ccc3c(c2)N(C[C@@H]2CC[C@H]21)C[C@@]1(CCCc2cc(Cl)ccc21)CO3` [Example 17, (1S,3′R,6′R,7′S,9′E,11′S,12′R)-6-chloro-7′-methoxy-11′,12′-dimethyl-3,4-dihydro-2H,15′H-spiro[naphthalene-1,22′-[20]oxa[13]thia[1,14]diazatetracyclo[14.7.2.0^3,6.0^19,24]pentacosa[9,16,18,24]tetraen]-15′-one 13′,13′-dioxide] returned an IC50 in experiment [2] (Homo sapiens, 16 h) of 7920 nM.

`CC[C@@H]1CCCCC(=O)[C@@H]2CC[C@H]2CN2C[C@@]3(CCCc4cc(Cl)ccc43)COc3ccc(cc32)C(=O)NS1(=O)=O` [Example 886, (1S,3′R,6′R,12′R)-6-chloro-12′-ethyl-3,4-dihydro-2H,7′H,15′H-spiro[naphthalene-1,22′-[20]oxa[13]thia[1,14]diazatetracyclo[14.7.2.0^3,6.0^19,24]pentacosa [16,18,24]triene]-7′,15′-dione 13′,13′-dioxide] came in with a concentration for half-maximal inhibition (IC50) in experiment [2] (setting [4]) of 12300 nM.

As for `CC[C@@H]1CC/C=C/[C@H](OCC(=O)N2CCOCC2)[C@@H]2CC[C@H]2CN2C[C@@]3(CCCc4cc(Cl)ccc43)COc3ccc(cc32)C(=O)NS1(=O)=O` [Example 979, (1S,3′R,6′R,7′S,8′E,12′R)-6-chloro-12′-ethyl-7′-(2-(4-morpholinyl)-2-oxoethoxy)-3,4-dihydro-2H,15′H-spiro[naphthalene-1,22′-[20]oxa[13]thia[1,14]diazatetracyclo[14.7.2.0^3,6.0^19,24]pentacosa [8,16,18,24]tetraen]-15′-one 13′,13′-dioxide], the concentration for half-maximal inhibition (IC50) in experiment [2] (setting [6]) turned out to be 16900 nM.

`CC[C@@H]1CC/C=C/[C@H](OCCC(=O)OC)[C@@H]2CC[C@H]2CN2C[C@@]3(CCCc4cc(Cl)ccc43)COc3ccc(cc32)C(=O)NS1(=O)=O` [Example 1007]: 74 nM corresponded to half-maximal inhibition in experiment [2] (setting [6]) (IC50).

As to `O=C1NS(=O)(=O)C[C@H](CO)C/C=C/[C@H](O)[C@@H]2CC[C@H]2CN2C[C@@]3(CCCc4cc(Cl)ccc43)COc3ccc1cc32` [Example 1085, (1S,3′R,6′R,7′S,8′E,11′S)-6-chloro-7′-hydroxy-11′-(hydroxymethyl)-3,4-dihydro-2H,15′H-spiro [naphthalene-1,22′-[20]oxa[13]thia[1,14]diazatetracyclo[14.7.2.0^3,6.0^19,24]pentacosa [8,16,18,24]tetraen]-15′-one 13′,13′-dioxide], the half-inhibitory concentration (IC50) in experiment [1] (setting [3]) stood at 2.06 nM.

As to `CO[C@@H]1/C=C/CCCS(=O)(=O)NC(=O)c2ccc3c(c2)N(C[C@@H]2CC[C@H]21)C[C@@]1(CCCc2cc(Cl)ccc21)CO3` [Example 1091, (1S,3′R,6′R,7′R,8′E)-6-chloro-7′-methoxy-3,4-dihydro-2H,15′H-spiro [naphthalene-1,22′-[20]oxa[13]thia[1,14]diazatetracyclo[14.7.2.0^3,6.0^19,24]pentacosa [8,16,18,24]tetraen]-15′-one 13′,13′-dioxide], the concentration for half-maximal inhibition (IC50) in experiment [1] (setting [3]) stood at 3.69 nM.

`CC[C@@H]1CC/C=C/[C@@H](OC)[C@@H]2CC[C@H]2CN2C[C@@]3(CCCc4cc(Cl)ccc43)COc3ccc(cc32)C(=O)NS1(=O)=O` [Example 1093, (1S,3′R,6′R,7′R,8′E,12′R)-6-chloro-7′-methoxy-12′-ethyl-3,4-dihydro-2H,15′H-spiro [naphthalene-1,22′-[20]oxa[13]thia[1,14]diazatetracyclo[14.7.2.0^3,6.0^19,24]pentacosa [8,16,18,24]tetraen]-15′-one 13′,13′-dioxide]: the IC50 in experiment [1] (setting [3]) was 2.54 nM.

As for `CO[C@@H]1CCCCCS(=O)(=O)NC(=O)c2ccc3c(c2)N(C[C@@H]2CC[C@H]21)C[C@@]1(CCCc2cc(Cl)ccc21)CO3` [Example 1094, (1S,3′R,6′R,7′R)-6-chloro-7′-methoxy-3,4-dihydro-2H,15′H-spiro [naphthalene-1,22′-[20]oxa[13]thia[1,14]diazatetracyclo[14.7.2.0^3,6.0^19,24]pentacosa [16,18,24]trien]-15′-one 13′,13′-dioxide], the half-maximal inhibitory concentration (IC50) in experiment [1] (setting [3]) was 17.8 nM.

On to `CS(=O)(=O)CCO[C@@H]1/C=C/CCCS(=O)(=O)NC(=O)c2ccc3c(c2)N(C[C@@H]2CC[C@H]21)C[C@@]1(CCCc2cc(Cl)ccc21)CO3` [Example 1095, (1S,3′R,6′R,7′R,8′E)-6-chloro-7′-(2-(methylsulfonyl)ethoxy)-3,4-dihydro-2H,15′H-spiro [naphthalene-1,22′-[20]oxa[13]thia[1,14]diazatetracyclo[14.7.2.0^3,6.0^19,24]pentacosa [8,16,18,24]tetraen]-15′-one 13′,13′-dioxide], for which the concentration for half-maximal inhibition (IC50) in experiment [1] (setting [3]) was found to be 1.29 nM.

In the case of `CS(=O)(=O)CCO[C@@H]1CCCCCS(=O)(=O)NC(=O)c2ccc3c(c2)N(C[C@@H]2CC[C@H]21)C[C@@]1(CCCc2cc(Cl)ccc21)CO3` [Example 1096, (1S,3′R,6′R,7′R)-6-chloro-7′-(2-(methylsulfonyl)ethoxy)-3,4-dihydro-2H,15′H-spiro [naphthalene-1,22′-[20]oxa[13]thia[1,14]diazatetracyclo[14.7.2.0^3,6.0^19,24]pentacosa [16,18,24]trien]-15′-one 13′,13′-dioxide], the IC50 in experiment [1] (setting [3]) came out at 3.48 nM.

“(1S,3′R,6′S,14′S,15′R)-6-chloro-3,4-dihydro-2H,9′H,17′H-spiro[naphthalene-1,24′-[22]oxa[15]thia[1,10,16]triazapentacyclo[16.7.2.1^10,14.0^3,6.0^21,26]octacosa[18,20,26]triene]-9′,17′-dione 15′-oxide or (1S,3′R,6′S,14′S,15′S)-6-chloro-3,4-dihydro-2H,9′H,17′H-spiro[naphthalene-1,24′-[22]oxa[15]thia[1,10,16]triazapentacyclo[16.7.2.1^10,14.0^3,6.0^21,26]octacosa[18,20,26]triene]-9′,17′-dione 15′-oxide [Example 948]”: the IC50 in experiment [1] (setting [5]) was found to be 10.3 nM.

Turning to “(1S,3′R,6′S,14′S,15′S)-6-chloro-3,4-dihydro-2H,9′H,17′H-spiro[naphthalene-1,24′-[22]oxa[15]thia[1,10,16]triazapentacyclo[16.7.2.1^10,14.0^3,6.0^21,26]octacosa[18,20,26]triene]-9′,17′-dione 15′-oxide or (1S,3′R,6′S,14′S,15′R)-6-chloro-3,4-dihydro-2H,9′H,17′H-spiro[naphthalene-1,24′-[22]oxa[15]thia[1,10,16]triazapentacyclo[16.7.2.1^10,14.0^3,6.0^21,26]octacosa[18,20,26]triene]-9′,17′-dione 15′-oxide [Example 949]”, the half-maximal inhibitory concentration (IC50) in experiment [1] (setting [5]) was found to be 8.43 nM.

Turning to “(3R,6R,7R,11E,22S)-6′-chloro-7-hydroxy-3′,4′-dihydro-2′H,15H-spiro[9,20-dioxa-13-thia-1,14-diazatetracyclo[14.7.2.0^3,6.0^19,24]pentacosa-11,16,18,24-tetraene-22,1′-naphthalen]-15-one 13,13-dioxide or (3R,6R,7S,11E,22S)-6′-chloro-7-hydroxy-3′,4′-dihydro-2′H,15H-spiro[9,20-dioxa-13-thia-1,14-diazatetracyclo[14.7.2.0^3,6.0^19,24]pentacosa-11,16,18,24-tetraene-22,1′-naphthalen]-15-one 13,13-dioxide [Example 863]”, the IC50 in experiment [1] (setting [5]) turned out to be 5.38 nM.

Turning to “N-((1S,3′R,6′R,7′S)-6-chloro-13′,13′-dioxido-15′-oxo-3,4-dihydro-2H-spiro[naphthalene-1,22′-[20]oxa[13]thia[1,14]diazatetracyclo[14.7.2.0^3,6.0^19,24]pentacosa [16,18,24]trien]-7′-yl)acetamide or N-((1S,3′R,6′R,7′R)-6-chloro-13′,13′-dioxido-15′-oxo-3,4-dihydro-2H-spiro[naphthalene-1,22′-[20]oxa[13]thia[1,14]diazatetracyclo[14.7.2.0^3,6.0^19,24]pentacosa [16,18,24]trien]-7′-yl)acetamide [Example 934]”, in experiment [1] (setting [5]), the half-inhibitory concentration (IC50) was 2.07 nM.
